In the supplement of paper PMC4862054:

Legend:
Conditions in all cases: 72 h
BT-549 = system: BT-549
In short: (§1)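 A 20 µl suspension of breast cancer cells was placed in 384-well plates that already contained compound at 5 concentrations in 10-fold steps across a compound-specific 10,000-fold range, and the plates were left for 72 h. CellTox Green fluorescence at 485/520 nm gave cell death, and CellTiter-Glo luminescence, read after 10 min at room temperature, gave viability. Each plate was normalised to 0.1 % DMSO and a positive kill control. EC50 was fitted from the curves and censored at the top concentration.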

HCC1937 [1] = system: HCC1937
In short: as §1

CAL-148 [2] = system: CAL-148
In short: (§2)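 EC50 is the value from a fitted percent-inhibition dose-response curve, censored at the highest concentration, and rows with zero drug sensitivity score were not kept. The underlying assay seeded breast cancer cell lines in 20 µl onto 384-well plates pre-loaded with compound in 5 µl medium for 72 h. Viability was then read by CellTiter-Blue fluorescence at 560/590 nm after 2 h at 37 °C, with each plate normalised to vehicle and a positive kill control.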

HCC1143 = system: HCC1143
In short: as §2

HCC1599 = system: HCC1599
In short: as §2

BT-474 = system: BT-474
Method: (§3)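 Drug sensitivity and resistance testing (DSRT) of breast cancer cell lines in 384-well plates, 5 concentrations in 10-fold dilutions over a compound-specific 10,000-fold range. After 72 h, cytotoxicity was read by CellTox Green fluorescence and viability by CellTiter-Glo luminescence (multiplexed), normalised to DMSO and benzethonium chloride controls. EC50 is the inflection point of the fitted dose-response curve (bottom asymptote free, so it can be relative for partial curves) and is censored at the highest tested concentration. Rows with DSS 0 (no meaningful response) were excluded.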

CAL-120 = system: CAL-120
Method: as §3

CAL-148 [3] = system: CAL-148; remark: listed apart in the source
Method: as §3

CAL-85-1 = system: CAL-85-1
Method: as §3

DU-4475 = system: DU-4475
Method: as §3

HCC1937 [4] = system: HCC1937; remark: listed apart in the source
Method: as §3

Hs578T = system: Hs578T
Method: as §3

MCF-10A = system: MCF-10A
Method: as §3

MDA-MB-468 = system: MDA-MB-468
Method: as §3

MFM-223 = system: MFM-223
Method: as §3

MDA-MB-436 = system: MDA-MB-436
Method: as §3

SMILES | EC50, CellTiter-Glo (BT-549) [nM] | EC50, CellTiter-Glo (HCC1937 [1]) [nM] | EC50, CellTiter-Blue viability (CAL-148 [2]) [nM] | EC50, CellTiter-Blue viability (HCC1143) [nM] | EC50, CellTiter-Blue viability (HCC1599) [nM] | EC50, CellTox Green (CAL-148 [3]) [nM] | other results
Cc1[nH]c2ccccc2c1CCNCc1ccc(/C=C/C(=O)NO)cc1 [Panobinostat] | 81.3 | 168 | 12.9 | 27.4 | 24.1 | 18.6 | EC50, CellTox Green (BT-474): 27.8 nM; EC50, CellTox Green (CAL-120): 68.4 nM; EC50, CellTox Green (CAL-85-1): 33.2 nM; EC50, CellTox Green (DU-4475): 20.2 nM; EC50, CellTox Green (HCC1937 [4]): 71 nM; EC50, CellTox Green (Hs578T): 28.6 nM; EC50, CellTox Green (MCF-10A): 579 nM; EC50, CellTox Green (MDA-MB-468): 133 nM; EC50, CellTox Green (MFM-223): 182 nM
Nc1cc(C(F)(F)F)c(-c2cc(N3CCOCC3)nc(N3CCOCC3)n2)cn1 [BKM-120] | – | – | 1710 | 2350 | 517 | – | –
S=P(N1CC1)(N1CC1)N1CC1 [Thio-TEPA] | 8210 | – | – | – | – | – | –
COCC1(CO)C(=O)C2CCN1CC2 (stereo not drawn) [Prima-1 Met] | 2900 | – | – | – | – | – | –
NC(=O)c1ccc(I)c([N+](=O)[O-])c1 [Iniparib] | – | – | – | – | – | – | EC50, CellTox Green (CAL-120): > 10000 nM
CCn1c(-c2nonc2N)nc2cnc(Oc3cccc(NC(=O)c4ccc(OCCN5CCOCC5)cc4)c3)cc21 | 4290 | – | – | – | – | – | EC50, CellTox Green (MDA-MB-468): > 10000 nM
COCC[n+]1c2c(n(Cc3cnccn3)c1C)C(=O)c1ccccc1C2=O [YM155] | 65.5 | 11.2 | 11.6 | 26.2 | 12 | 34.2 | EC50, CellTox Green (BT-474): 17.9 nM; EC50, CellTox Green (CAL-120): 6.34 nM; EC50, CellTox Green (CAL-85-1): 5.8 nM; EC50, CellTox Green (DU-4475): 418 nM; EC50, CellTox Green (HCC1937 [4]): 24.8 nM; EC50, CellTox Green (Hs578T): 2600 nM; EC50, CellTox Green (MCF-10A): 12.8 nM; EC50, CellTox Green (MDA-MB-436): 24.2 nM; EC50, CellTox Green (MDA-MB-468): 9.24 nM; EC50, CellTox Green (MFM-223): 836 nM
CN(C)c1nc(N(C)C)nc(N(C)C)n1 [Altretamine] | – | – | – | – | 2950 | – | –
COc1cc(OC2CCN(C)CC2)ccc1Nc1ncc2c(n1)n(C1CCCC1)c(=O)n2C [AZ 3146] | – | – | 1990 | – | – | – | EC50, CellTox Green (MDA-MB-436): > 10000 nM
COc1cc2ncnc(Nc3ccc(F)c(Cl)c3)c2cc1OCCCN1CCOCC1 [Gefitinib] | – | > 10000 | 1440 | – | 775 | > 10000 | EC50, CellTox Green (CAL-85-1): 2900 nM
CCc1c2c(nc3ccc(OC(=O)N4CCC(N5CCCCC5)CC4)cc13)-c1cc3c(c(=O)n1C2)COC(=O)[C@]3(O)CC [Irinotecan] | 9390 | – | 1170 | 2350 | 692 | 304 | EC50, CellTox Green (CAL-120): 5530 nM; EC50, CellTox Green (Hs578T): > 10000 nM
c1ccc2c(CCNc3ccc(Nc4ccncc4)cc3)c[nH]c2c1 [Serdemetan] | 1730 | > 10000 | 4530 | – | 1610 | 2310 | EC50, CellTox Green (DU-4475): 1810 nM; EC50, CellTox Green (MFM-223): 7780 nM
O=C(Nc1ccncc1)C(=O)c1cn(Cc2ccc(Cl)cc2)c2ccccc12 [Indibulin] | 185 | 245 | 5000 | 46.9 | – | – | EC50, CellTox Green (CAL-85-1): 858 nM; EC50, CellTox Green (Hs578T): 3450 nM; EC50, CellTox Green (MDA-MB-468): 1640 nM; EC50, CellTox Green (MFM-223): 395 nM
CN(C)CCOc1ccc(/C(=C(/CCCl)c2ccccc2)c2ccccc2)cc1 [Toremifene] | – | 9750 | – | – | – | – | EC50, CellTox Green (BT-474): 6160 nM; EC50, CellTox Green (HCC1937 [4]): 3450 nM
CO[C@H]1C[C@@H]2CC[C@@H](C)[C@@](O)(O2)C(=O)C(=O)N2CCCC[C@H]2C(=O)O[C@H]([C@H](C)C[C@@H]2CC[C@@H](OP(C)(C)=O)[C@H](OC)C2)CC(=O)[C@H](C)/C=C(\C)[C@@H](O)[C@@H](OC)C(=O)[C@H](C)C[C@H](C)/C=C/C=C/C=C/1C [Ridaforolimus] | 0.44 | 0.46 | 0.64 | 1 | – | – | EC50, CellTox Green (MDA-MB-436): 64.5 nM
Cc1cc(Nc2cc(CN3CCOCC3)c3nc(C)c(Cc4ccc(Cl)cc4F)n3n2)n[nH]1 | – | – | – | 121 | – | – | –
